Data reported in the NIST ThermoML archive (doi:10.1016/j.jct.2015.07.048).
Numbers after ± are expanded uncertainties.

Experiment: xn = mol fraction of the nth substance listed
Conditions: 100 kPa, Liquid; for viscosity: Cone and plate viscometry; for electrical conductivity: Direct current cell with electrodes; for mass density: Vibrating tube method

CCCn1cc[n+](C)c1.O=S(=O)([N-]S(=O)(=O)C(F)(F)F)C(F)(F)F + O=C1CCCO1
Conditions	electrical conductivity [S/m]	mass density [kg/m3]	viscosity [mPa·s]
293.15 K, x1 = 0.05	1.04 ± 0.033	1185.12 ± 2.2	–
293.15 K, x1 = 0.0999	–	1229.6 ± 2	–
293.15 K, x1 = 0.1	1.37 ± 0.042	–	3.42 ± 0.08
293.15 K, x1 = 0.15	1.45 ± 0.044	–	4.3 ± 0.1
293.15 K, x1 = 0.1999	1.37 ± 0.041	1295.75 ± 1.9	5.28 ± 0.12
293.15 K, x1 = 0.2912	1.2 ± 0.036	1338.94 ± 1.8	–
293.15 K, x1 = 0.2996	–	–	8.1 ± 0.18
293.15 K, x1 = 0.4005	0.89 ± 0.027	1377.51 ± 1.7	11.48 ± 0.25
293.15 K, x1 = 0.4986	0.707 ± 0.021	1403.93 ± 1.7	15.9 ± 0.34
293.15 K, x1 = 0.6	0.595 ± 0.018	1425.6 ± 1.7	21.71 ± 0.46
293.15 K, x1 = 0.6997	0.498 ± 0.015	1442.85 ± 1.7	28.23 ± 0.59
293.15 K, x1 = 0.7998	0.428 ± 0.013	1457.11 ± 1.6	35.85 ± 0.75
293.15 K, x1 = 0.8818	0.387 ± 0.012	1467.07 ± 1.6	43.07 ± 0.9
293.15 K, x1 = 1	0.355 ± 0.011	1479.32 ± 1.6	54.19 ± 1.1
298.15 K, x1 = 0.05	1.13 ± 0.036	1180.18 ± 2.2	–
298.15 K, x1 = 0.0999	–	1224.68 ± 2	–
298.15 K, x1 = 0.1	1.5 ± 0.046	–	3.16 ± 0.07
298.15 K, x1 = 0.15	1.6 ± 0.048	–	3.94 ± 0.09
298.15 K, x1 = 0.1999	1.52 ± 0.046	1290.81 ± 1.9	4.75 ± 0.11
298.15 K, x1 = 0.2912	1.38 ± 0.041	1333.98 ± 1.8	–
298.15 K, x1 = 0.2996	–	–	7.17 ± 0.16
298.15 K, x1 = 0.4005	1.1 ± 0.033	1372.56 ± 1.7	9.96 ± 0.21
298.15 K, x1 = 0.4986	0.87 ± 0.026	1398.93 ± 1.7	13.62 ± 0.29
298.15 K, x1 = 0.6	0.692 ± 0.021	1420.58 ± 1.7	18.38 ± 0.39
298.15 K, x1 = 0.6997	0.604 ± 0.018	1437.83 ± 1.7	23.68 ± 0.5
298.15 K, x1 = 0.7998	0.526 ± 0.016	1452.07 ± 1.6	29.72 ± 0.62
298.15 K, x1 = 0.8818	0.472 ± 0.014	1462.02 ± 1.6	35.46 ± 0.74
298.15 K, x1 = 1	0.435 ± 0.013	1474.24 ± 1.6	43.94 ± 0.9
303.15 K, x1 = 0.05	1.22 ± 0.039	1175.2 ± 2.2	–
303.15 K, x1 = 0.0999	–	1219.69 ± 2	–
303.15 K, x1 = 0.1	1.63 ± 0.05	–	2.92 ± 0.07
303.15 K, x1 = 0.15	1.75 ± 0.052	–	3.6 ± 0.08
303.15 K, x1 = 0.1999	1.67 ± 0.05	1285.84 ± 1.9	4.3 ± 0.09
303.15 K, x1 = 0.2912	1.56 ± 0.047	1329.01 ± 1.8	–
303.15 K, x1 = 0.2996	–	–	6.31 ± 0.14
303.15 K, x1 = 0.4005	1.22 ± 0.037	1367.63 ± 1.7	8.69 ± 0.19
303.15 K, x1 = 0.4986	1.02 ± 0.031	1394.03 ± 1.7	11.81 ± 0.25
303.15 K, x1 = 0.6	0.796 ± 0.024	1415.71 ± 1.7	15.67 ± 0.33
303.15 K, x1 = 0.6997	0.714 ± 0.021	1432.97 ± 1.7	19.81 ± 0.41
303.15 K, x1 = 0.7998	0.629 ± 0.019	1447.22 ± 1.6	24.68 ± 0.51
303.15 K, x1 = 0.8818	0.564 ± 0.017	1457.17 ± 1.6	28.84 ± 0.6
303.15 K, x1 = 1	0.521 ± 0.016	1469.4 ± 1.6	35.92 ± 0.74
308.15 K, x1 = 0.05	1.31 ± 0.042	1170.18 ± 2.2	–
308.15 K, x1 = 0.0999	–	1214.67 ± 2	–
308.15 K, x1 = 0.1	1.76 ± 0.054	–	2.68 ± 0.06
308.15 K, x1 = 0.15	1.9 ± 0.057	–	3.3 ± 0.07
308.15 K, x1 = 0.1999	1.85 ± 0.056	1280.78 ± 1.9	3.91 ± 0.09
308.15 K, x1 = 0.2912	1.75 ± 0.052	1323.97 ± 1.8	–
308.15 K, x1 = 0.2996	–	–	5.67 ± 0.12
308.15 K, x1 = 0.4005	1.44 ± 0.043	1362.59 ± 1.7	7.71 ± 0.16
308.15 K, x1 = 0.4986	1.27 ± 0.038	1389.01 ± 1.7	10.31 ± 0.22
308.15 K, x1 = 0.6	0.992 ± 0.03	1410.7 ± 1.7	13.51 ± 0.28
308.15 K, x1 = 0.6997	0.827 ± 0.025	1427.98 ± 1.7	17.13 ± 0.36
308.15 K, x1 = 0.7998	0.737 ± 0.022	1442.24 ± 1.6	21 ± 0.44
308.15 K, x1 = 0.8818	0.667 ± 0.02	1452.2 ± 1.6	24.51 ± 0.51
308.15 K, x1 = 1	0.611 ± 0.018	1464.43 ± 1.6	30 ± 0.62
313.15 K, x1 = 0.05	1.42 ± 0.045	1165.15 ± 2.2	–
313.15 K, x1 = 0.0999	–	1209.63 ± 2	–
313.15 K, x1 = 0.1	1.9 ± 0.058	–	2.49 ± 0.06
313.15 K, x1 = 0.15	2.06 ± 0.062	–	3.06 ± 0.07
313.15 K, x1 = 0.1999	2.02 ± 0.061	1275.71 ± 1.9	3.57 ± 0.08
313.15 K, x1 = 0.2912	1.94 ± 0.058	1318.9 ± 1.8	–
313.15 K, x1 = 0.2996	–	–	5.1 ± 0.11
313.15 K, x1 = 0.4005	1.64 ± 0.049	1357.55 ± 1.7	6.92 ± 0.15
313.15 K, x1 = 0.4986	1.44 ± 0.043	1383.98 ± 1.7	9.13 ± 0.19
313.15 K, x1 = 0.6	1.15 ± 0.035	1405.67 ± 1.7	11.92 ± 0.25
313.15 K, x1 = 0.6997	1.03 ± 0.031	1422.96 ± 1.7	14.78 ± 0.31
313.15 K, x1 = 0.7998	0.849 ± 0.026	1437.25 ± 1.6	17.93 ± 0.37
313.15 K, x1 = 0.8818	0.789 ± 0.024	1447.22 ± 1.6	20.73 ± 0.43
313.15 K, x1 = 1	0.71 ± 0.021	1459.44 ± 1.6	25.32 ± 0.52
318.15 K, x1 = 0.05	1.52 ± 0.048	1159.99 ± 2.2	–
318.15 K, x1 = 0.0999	–	1204.53 ± 2	–
318.15 K, x1 = 0.1	2.03 ± 0.062	–	2.3 ± 0.05
318.15 K, x1 = 0.15	2.22 ± 0.067	–	2.8 ± 0.06
318.15 K, x1 = 0.1999	2.24 ± 0.067	1270.69 ± 1.9	3.25 ± 0.07
318.15 K, x1 = 0.2912	2.13 ± 0.064	1313.92 ± 1.8	–
318.15 K, x1 = 0.2996	–	–	4.6 ± 0.1
318.15 K, x1 = 0.4005	1.92 ± 0.058	1352.58 ± 1.7	6.2 ± 0.13
318.15 K, x1 = 0.4986	1.68 ± 0.051	1379.05 ± 1.7	8.06 ± 0.17
318.15 K, x1 = 0.6	1.41 ± 0.042	1400.79 ± 1.7	10.43 ± 0.22
318.15 K, x1 = 0.6997	1.21 ± 0.037	1418.09 ± 1.7	12.8 ± 0.27
318.15 K, x1 = 0.7998	0.997 ± 0.03	1432.4 ± 1.6	15.49 ± 0.32
318.15 K, x1 = 0.8818	0.883 ± 0.027	1442.41 ± 1.6	17.84 ± 0.37
318.15 K, x1 = 1	0.813 ± 0.024	1454.63 ± 1.6	21.58 ± 0.44
323.15 K, x1 = 0.05	1.64 ± 0.052	1154.83 ± 2.2	–
323.15 K, x1 = 0.0999	–	1199.33 ± 2	–
323.15 K, x1 = 0.1	2.17 ± 0.066	–	2.13 ± 0.05
323.15 K, x1 = 0.15	2.38 ± 0.071	–	2.59 ± 0.06
323.15 K, x1 = 0.1999	2.41 ± 0.072	1265.59 ± 1.9	3.01 ± 0.07
323.15 K, x1 = 0.2912	2.33 ± 0.07	1308.85 ± 1.8	–
323.15 K, x1 = 0.2996	–	–	4.21 ± 0.09
323.15 K, x1 = 0.4005	2.1 ± 0.063	1347.55 ± 1.7	5.59 ± 0.12
323.15 K, x1 = 0.4986	1.9 ± 0.057	1374.04 ± 1.7	7.24 ± 0.15
323.15 K, x1 = 0.6	1.64 ± 0.049	1395.82 ± 1.7	9.27 ± 0.19
323.15 K, x1 = 0.6997	1.39 ± 0.042	1413.16 ± 1.7	11.31 ± 0.24
323.15 K, x1 = 0.7998	1.15 ± 0.035	1427.49 ± 1.6	13.71 ± 0.29
323.15 K, x1 = 0.8818	1.03 ± 0.031	1437.5 ± 1.6	15.72 ± 0.33
323.15 K, x1 = 1	0.923 ± 0.028	1449.73 ± 1.6	18.82 ± 0.39
